Results published in patent US11434289B2, “Anti-GPR20 antibody and anti-GPR20 antibody-drug conjugate” (DAIICHI SANKYO COMPANY, LIMITED, priority 2017, dated 2022).

Assays:
GIST074 = assay: Antitumor effect in subcutaneously GIST074-transplanted nude mouse models (regorafenib-unresponsive patient tumor); assay type: in vivo, BALB/c nude mice; conditions: orally once a day; imatinib 90, sunitinib 30, regorafenib 4 mg/kg; FIG. 36
Procedure: The antitumor effects of the antibody-drug conjugates were evaluated using animal models derived from immunodeficient mice by the transplantation of human gastrointestinal stromal tumor-derived cells. Five- to 6-week-old female BALB/c nude mice (CAnN.Cg-Foxnlnu/CrlCrlj, Charles River Laboratories Japan Inc.) were acclimatized for 4 to 7 days under SPF conditions before use in the experiment. The mice were fed with a sterilized solid diet (FR-2, Funabashi Farms Co., Ltd) and given sterilized tap water (which had been prepared by adding a 5 to 15 ppm sodium hypochlorite solution to tap water). The longest diameter and the shortest diameter of the transplanted tumor were measured once or twice a week using electronic digital calipers (CD-15CX, Mitutoyo Corp.), and the volume of the tumor was then calculated according to the following equation. Tumor volume (mm^3)=½×Longest diameter (mm)×[Shortest diameter (mm)]^2
[…] ABS buffer was administered in the same manner as above to a control group (vehicle group). Five or six mice per group were used in the experiment. […]

[1] = system: human gastrointestinal stromal tumor cell line GIST430/654; assay: Antitumor effect and combined use with sunitinib in GIST430/654-transplanted nude mouse models (imatinib resistance mutation V654A in KIT); assay type: in vivo, BALB/c nude mice; conditions: orally once a day; imatinib 150, sunitinib 40 mg/kg; FIG. 37
Procedure: The effect of combined use with sunitinib was evaluated in models with human gastrointestinal stromal tumor cell line GIST430/654 (obtained from Brigham Women's Hospital) having imatinib resistance mutation V654A in the KIT gene. […]

SMILES	tumor growth (GIST074)	tumor growth [1]
Cc1ccc(NC(=O)c2ccc(CN3CCN(C)CC3)cc2)cc1Nc1nccc(-c2cccnc2)n1 [imatinib]	tumor growth was not completely suppressed	did not suppress tumor growth
CNC(=O)c1cc(Oc2ccc(NC(=O)Nc3ccc(Cl)c(C(F)(F)F)c3)c(F)c2)ccn1 [regorafenib]	tumor growth was not completely suppressed	–
